In patent US20230270805A1, “A COMPOSITION COMPRISING AN EXTRACT OF ALDER TREE OR THE ISOLATED COMPOUNDS THEREFROM FOR TREATING AND PREVENTING SKELETON MUSCLE-RELATED DISORDER AND THE USE THEREOF” (Sookmyung Women's University Indusutry-Academic Cooperation …, priority 2020, published 2023):

Columns and labels:
[1] = system: MHC; assay: Western blot of MHC expression in differentiating C2C12 myoblasts; type: cell-based, mouse
Method: (§1) Various concentrations of inventive extract (1, 10, 100 ng/ml) were treated to C2C12 cells (mouse myoblast cell line; Cat^#CRL-1771, ATCC) in differentiation medium (2% horse serum-containing DMEM, Cat^#11965-084, Gibco) for 3 days to induce their differentiation.
(§2) For Western blot analysis, about 3×10^4 mouse myoblast cell cells were incubated in 60 mm plates for 24 hours, and each sample was added to the differentiation medium for 3 days to differentiate. The protein extract was obtained from the differentiated cells using by lysis buffer [25 mM Tris-HCl (pH 7.5), 100 mM NaCl, 1% NP-40, 1% sodium deoxycholate, 0.1% sodium dodecyl sulfate (SDS), and protease inhibitor cocktail, Calbiochem, Darmstadt, Germany). The protein extract (25 μg) was performed to SDS-polyacrylamide gel electorphoresis (PAGE) and transferred to polyvinylidene fluoride (PVDF) membranes.
Primary mouse anti-MHC (sc-376157, Santa Cruz) or anti-myoD (sc-32758, Santa Cruz) was conjugated to the blots at 4° C., for 12 hrs and then conjugated with anti-mouse secondary antibody conjugated to Horseradish peroxidase (goat anti-mouse IgG-HRP, sc-2005, SantaCruz) to analyze the amount of MHC protein by chemiluminescence method. Pan-cadherin (Cat #3678, Sigma) was used as a loading control in the experiment.
(§3) Various inventive compounds (10 nM) were treated to C2C12 cells (mouse myoblast cell line; Cat^#CRL-1771, ATCC) in differentiation medium (2% horse serum-containing DMEM, Cat^#11965-084, Gibco) for 3 days to induce their differentiation.
as §2, with “electrophoresis” for “electorphoresis”
(§4) The change of MHC expression caused by inventive compound in myotube cell was determined by immunostaining method using by mouse anti-MHC and anti-mouse IgG2b Alexa-fluor 568 (See FIG. 7) (Chem. Biol. Interact. 2016, 248:60).
(§5) Various concentrations of inventive compound 1 (1, 10 and 100 nM) were treated to C2C12 cells (mouse myoblast cell line; Cat^#CRL-1771, ATCC) in differentiation medium (2% horse serum-containing DMEM, Cat^#11965-084, Gibco) for 3 days to induce their differentiation.

[2] = system: myoD; assay: Western blot of myoD expression in differentiating C2C12 myoblasts; type: cell-based, mouse; details: 3 days differentiation
Method: Various concentrations of inventive extract (1, 10, 100 ng/ml) were treated to C2C12 cells (mouse myoblast cell line; Ca^#CRL-1771, American Type Culture Collection (ATCC)) and cell lysates obtained from the differentiated cells, were subjected to Western Blot analysis to evaluate the expressed level of MHC and myoD proteins (The result was shown in FIG. 1A). the change of MHC expression caused by inventive extract in myotube cell was determined by immunostaining method using by mouse anti-MHC and anti-mouse IgG2b Alexa-fluor 568 (See FIG. 1B) (Chem. Biol. Interact. 2016, 248:60).
as §1
as §2, with “The protein extract (25 μg) was performed to SDS-polyacrylamide gel electorphoresis (PAGE) and transferred to polyvinylidene fluoride (PVDF) membranes.” left out
In order to investigate the myogenic effect of the inventive compound 1 obtained in Example, various concentrations of inventive compound 1 (1, 10 and 100 nM) were treated to C2C12 cells (mouse myoblast cell line; Cat^#CRL-1771, American Type Culture Collection (ATCC)) and cell lysates obtained from the differentiated cells, were subjected to Western Blot analysis to evaluate the expressed level of MHC and myoD proteins (The result was shown in FIG. 6). The change of MHC expression caused by inventive compound in myotube cell was determined by immunostaining method using by mouse anti-MHC and anti-mouse IgG2b Alexa-fluor 568 (See FIG. 7) (Chem. Biol. Interact. 2016, 248:60). […]

[3] = system: C2C12 cells; assay: Immunofluorescence staining (anti-MHC/DAPI) of multinucleated myotubes, myoblast differentiation; type: cell-based, mouse
Method: as §1
(§6) After removing respective differentiation medium, the differentiated myoblast cells in the differentiation medium were washed with phosphate buffer solution twice and fixed with 4% paraformaldehyde (0141, BBC Biochemical) for 20 mins. After washing the cells with phosphate buffer solution twice again, the cells were treated with 0.1% tritonX-100 (2315025, Sigma) for 20 mins. After washing the cells with phosphate buffer solution twice again, the cells were blocked with 5% horse serum solution (16050122, Gibco) and mouse anti-MHC (MAB4470, R&D systems) was added thereto to react for 12 hours at 4° C.
(§7) After finishing the reaction, the cells were washed with phosphate buffer solution more than 3 times and then the level of MHC expression was analyzed using by Alexa Flouor 568-conjuagted secondary anti-mouse (A-21144, MicoProbes) and DAPI (D9542, Sigma). The test result of immunofluorescence on MHC-positive myotubes was visualized with red color and the DAPI-labelled nucleus was visualized with blue color.
as §3, §4, §5

[4] = system: p38 MAPK; assay: Western blot of phosphorylated p38 MAPK in differentiated myotubes; type: cell-based, mouse; details: 3 days after differentiation
Method: Various concentrations of inventive extract (1, 10, 100 ng/ml) were treated to myoblast cells and the expressed level of p38 MAPK protein in the lysates of differentiated myotubes obtained at 3 days after the differentiation, was determined according to Western blot analysis.
Primary rabbit-anti phosphorylation p38 MAPK (Cat #9212, Cell Signaling Technology) was reacted with anti-rabbit secondary antibody (goat anti-rabbit IgG-HRP, sc-2004, SantaCruz) to determine the express level of phosphorylated p38 MAPK and primary rabbit-anti-p38 MAPK (Cat #9212, Cell Signaling Technology) was used to determine the expressed amount of total p38 MAPK (loading control)
Various concentrations of inventive compound 1 (1, 10, 100 nM) were treated to myoblast cells and the expressed level of p38 MAPK protein in the lysates of differentiated myotubes obtained at 3 days after the differentiation, was determined according to Western blot analysis.

[5] = system: C2C12 myotube cells treated with dexamethasone; assay: Immunofluorescence staining of multinucleated MHC-positive myotubes after dexamethasone-induced muscle loss; type: cell-based, mouse; details: dexamethasone (12 hours) + compound 10 nM; control group = 1
Method: as §6, §7
About 3×10^4 mouse myoblast cell cells (C2C12; CRL-1772 ATCC) were incubated in 60 mm plates for 24 hours, and various inventive compounds (10 nM) were added to the differentiation medium (0273, Gibco) for 3 days to differentiate.

[6] = Body weight in dexamethasone animal model of muscle loss; type: in vivo, mouse; details: Dexa + oxymetholone 10 mg/kg oral daily
Method: (§8) Dexamethasone, a synthetic glucocorticoid, was injected subcutaneously into C57/BL6 mouse mice to establish an animal model of muscle loss and following experiment was performed.
(§9) To establish an in vivo model of muscle loss, 6 weeks-old male C57/BL6 mice (Raon Bio, 6 weeks old, weight range: 32-36 g) were acclimated for one-week, and then weighed animals determined to be healthy during the acclimatization period. The mice close to the average weight were selected using a simple random sampling method and were classified into five groups, namely, (a) a control group, (b) a muscle loss control group (treated with dexamethasone 1 mg/kg), (c) test sample group treated with inventive extract 250 mg/kg and dexamethasone, (d) test sample group treated with inventive extract 500 mg/kg and dexamethasone, and (e) positive control treated with oxymetholone (Celltrion Co. Ltd, ATC #A14AA05, 10 mg/kg) and dexamethasone.
(§10) The inventive Extract and oxymetholone were administered once to the mice daily for 4 weeks and dexamethasone was injected subcutaneously for 10 days from 10 days before the end of co-treatment of inventive extract and oxymetholone.
(§11) Both of inventive extract and oxymetholone were forcibly administered orally using zonde for oral administration after holding and fixing the skin of the animal's poll area, and dexamethasone was injected slowly subcutaneously after inserting a syringe into the dorsal skin fold of the animal held on the thumb and index finger, slightly aspirating whether it was injected normally, and confirming that no blood came out.
The body weight of every animal was measured once a week for 4 weeks from the day of inventive extract administration.

[7] = system: C57/BL6 mice; assay: Grip strength test in dexamethasone animal model of muscle loss; type: in vivo, mouse; details: Dexa + oxymetholone 10 mg/kg oral daily
Method: as §8, §9, §10, §11
The grip strength of mice was determined as follows; after grabbing the animal's tail and placing it on the grid, the front foot and body were pulled at the same speed until the front foot and body were held at the grid with the front paw, and the average value was calculated after three experimental repetitions. The determination was performed on the 14th and 28th days after the administration of test sample.

[8] = system: C57/BL6 mice; assay: Treadmill test in dexamethasone animal model of muscle loss; type: in vivo, mouse; details: Dexa + oxymetholone 10 mg/kg oral daily
Method: as §8, §9, §10, §11
The determination was performed on the 14th and 28th days after the administration of test sample.

[9] = system: C57/BL6 mice; assay: Weight of muscle mass, epididymal fat and liver in dexamethasone animal model of muscle loss; type: in vivo, mouse; details: Dexa + oxymetholone 10 mg/kg oral daily, autopsy at 4 weeks
Method: as §8, §9, §10, §11
The mice were anesthetized with anesthetic to prevent the movement of experimental animals and sacrificed to minimize pain to dissect them. All instruments used during the experiment were sterilized and disinfected and their liver and epididymis fat were harvested.
The gastrocnemius muscle and soleus muscle of the mice were separated, washed in saline, drained, and weighed.
After autopsy at 4 weeks after administration, the weight of liver and Epididymis fat was weighed to calculate weight-to-weight to compare the relative differences between the organ's weight in the groups.

[10] = compound 10 nM, 3 days differentiation, control = 1 (Experimental Example 3)
[11] = compound 10 nM, 3 days differentiation (Experimental Example 3)

With `COc1cc(/C=C/C(=O)OC[C@H](Cc2ccc(O)c(OC)c2)[C@H](COC(=O)/C=C/c2ccc(O)c(OC)c2)Cc2ccc(O)c(OC)c2)ccc1O` [Compound 1, (−)-(2R,3R)-1,4-O-diferuloylsecoisolariciresinol] the “MHC/pan-cadherin expression (fold)” value [1, 10] was 1.5 fold, the “MHC/pan-cadherin expression (fold)” value ([1]; compound 1 at 1 nM, 3 days differentiation (Experimental Example 4)) was 1.2 fold and the “MHC/pan-cadherin expression (fold)” value ([1]; compound 1 at 10 nM, 3 days differentiation (Experimental Example 4)) was 6.0 fold. The “MHC/pan-cadherin expression (fold)” value ([1]; compound 1 at 100 nM, 3 days differentiation (Experimental Example 4)) was 4.6 fold, the “myoD/pan-cadherin expression (fold)” value ([2]; compound 1 at 1 nM) was 1.2 fold and the “myoD/pan-cadherin expression (fold)” value ([2]; compound 1 at 10 nM) was 1.3 fold. For the same molecule, the “myoD/pan-cadherin expression (fold)” value ([2]; compound 1 at 100 nM) was 1.7 fold, the “The number of muscle fibers that are multinucleated with five or more nuclei and expressed with MHC (fold)” value (from here on “The number … (fold)”) [3, 11] was 2.8 fold and the “The number … (fold)” value ([3]; compound 1 at 1 nM (Experimental Example 4)) was 1.5 fold. For the same molecule, the “The number … (fold)” value ([3]; compound 1 at 10 nM (Experimental Example 4)) was 9.0 fold, the “The number … (fold)” value ([3]; compound 1 at 100 nM (Experimental Example 4)) was 8.0 fold and the “phosphorylated-p38/p38 expressed amount (fold)” value (from here on “phosphorylated-p38/p38 … (fold)”) ([4]; compound 1 at 1 nM) was 10.6 fold. For the same molecule, the “phosphorylated-p38/p38 … (fold)” value ([4]; compound 1 at 10 nM) was 14.8 fold, the “phosphorylated-p38/p38 … (fold)” value ([4]; compound 1 at 100 nM) was 15.0 fold and the “The number … (fold)” value [5] was 0.7 fold.
With `O=C(CCc1ccc(O)c(O)c1)CC(O)CCc1ccc(O)c(O)c1` (stereo not shown) [Compound 4, Hirsutanonol] the “MHC/pan-cadherin expression (fold)” value [1, 10] was 1.9 fold, the “The number … (fold)” value [3, 11] was 3.1 fold and the “The number … (fold)” value [5] was 0.7 fold.
With `C[C@]12C/C(=C/O)C(=O)C[C@@H]1CC[C@@H]1[C@@H]2CC[C@@]2(C)[C@H]1CC[C@]2(C)O` [Oxy, oxymetholone] the body weight ([6]; 0 week) was 22.26 ± 0.71 gram, the body weight ([6]; 1 week) was 22.49 ± 0.72 gram and the body weight ([6]; 2 weeks) was 23.25 ± 0.90 gram. For the same molecule, the body weight ([6]; 3 weeks) was 23.22 ± 0.93 gram, the body weight ([6]; 4 weeks) was 23.20 ± 0.78^b gram and the grip strength ([7]; 2 weeks) was 1.00 ± 0.06 N. For the same molecule, the grip strength ([7]; 4 weeks) was 1.25 ± 0.16^a N, the “motility (treadmill)” value ([8]; 2 weeks) was 774.75 ± 66.11 meter and the “motility (treadmill)” value ([8]; 4 weeks) was 773.93 ± 39.64 meter. For the same molecule, the “absolute weight, epididymal fat” value [9] was 0.43 ± 0.09^# gram, the “absolute weight, liver” value [9] was 1.16 ± 0.07 gram and the “absolute weight, calf muscle” value ([9]; gastrocnemius) was 0.251 ± 0.016 gram. For the same molecule, the “absolute weight, fluke muscle” value ([9]; soleus) was 0.023 ± 0.002^d gram.
